Results as given in patent US20070274916A1, “Method for Identifying Compounds that Affect Expression of Tryptophan Hydroxylase Isoform 2” (priority 2003, published 2007).
“Also recorded” adds a separate entry of the source. One block for each molecule: values may come before it.

Columns and labels:
Assay type in all cases: in vivo, mouse
[1] = Plasma corticosterone in male BKTO mice (radioimmunoassay); conditions: 4×5 mg pellets, equivalent of 40mg/kg/day, 14 days, FIG. 10, p=0.004
Experimental: (§1) Male BKTO mice (Bantin and Kingman, Hull UK) weighing 25 g at the start of the experiment were briefly anaesthetized using isofluorane. Animals were implanted with 4×5 mg cortic/sterone pellets (Innovative Research of America, catalogue number G-111, 21 day release formulation) or 4× placebo pellets (catalogue number NC-111) this gave an equivalent of 40mg/kg/day of corticosterone. Pellets were implanted using a trochar supplied by the manufacturer which had been modified to allow 4 pellets to be held in one trochar, thus requiring only one incision per animal. The most ideal place to implant the pellet was where there is maximal space between the skin and the muscle such as the lateral side of the neck between the ear and the shoulder-no stitching or wound clipping was required when using this technique. Animals were returned to the home cage and allowed to recover. Fourteen days later, the animals were humanely killed and trunk blood collected into EDTA coated tubes, centrifuged for 10 minutes at 3000 rpm, and plasma removed and frozen on dry ice until ready for analysis. Brains were removed, frozen in isopentane, and stored at −80° C. until ready for analysis. […] Plasma corticosterone was analyzed using a COAT-A-COUNT rat corticosterone radioimmunoassay kit (DPC Products-Order no TKRC1). […]

[2] = tested on: TPH2 mRNA; assay: TPH2 mRNA in raphe slice preparation of male BKTO mice under chronic corticosterone, real-time RT-PCR; conditions: 14 days, equivalent of 40mg/kg/day
Experimental: as §1

[3] = tested on: TPH1 mRNA; assay: TPH1 mRNA levels in murine raphe slice preparation by real-time RT-PCR; conditions: FIG. 6
Excerpt: (§2) Female mice (13 to 16 wks of age) were ovariectomized (C57BL/6s from Charles River; ER Knockout animals from Taconic). Animals were fed a soy-free rodent chow and allowed a minimum of one week to recuperate from surgery and shipping. […] Approximately six hours following the fourth dose, mice were deeply anesthetized with ketamine/xylazine and brains were removed from the skull, placed ventral side up in a mouse brain block on ice, and ice-cold razor blades were inserted into the block at 1 mm intervals. The caudal extent of the hypothalamus was used as an anatomical marker for the placement of the first razor blade, and 4 blades were placed in sequential slots, caudally. The four sections were examined and the two that encompassed the greatest extent of the dorsal raphe were placed in a tube containing RNALATER (Ambion, Austin, Tex.) and placed at 4° C. overnight. Brain slices were removed from RNALATER after 24 hours and stored at −80° C. in fresh tubes.
(§3) Isolation of total RNA from mouse raphe slices for real-time PCR analysis using the TAQMAN ABI PRISMS 7700 Detection System, Applied Biosystems, Foster City, Calif. was as follows. Samples were stored in RNALATER at 4° C. overnight followed by removal of RNALATER and storage at −80° C. until isolation of the total RNA (2 slices weigh 25 to 50 mg). Slices were removed from −80° C. and placed in 1.0 mL TRIZOL Reagent in FASTPREP processing tubes. Slices were homogenized with one pass at setting 6 for 30 seconds in FASTPREP 120 homogenizer using LYSING MATRIX D tubes with bead matrix followed by 20 seconds at setting 6 after all samples had been processed. Samples were set at room temperature for 5 minutes to allow for complete dissociation of nucleoprotein complexes followed by centrifugation of the samples at 12,000×g for 5 minutes at 4° C. Homogenates were transferred to 1.5 mL; microcentrifuge tubes and 100 μL BCP (Bromo-3-chloropropane) was added. Samples were vortexed for 15 seconds and set at room temperature for 2 to 3 minutes. Samples were centrifuged at 12,000×g for 15 minutes at 4° C. The aqueous layer was removed and placed in a new RNAse-free sterile 1.5 mL microcentrifuge tube. Five μL of 5 mg/μL glycogen was added to each sample and the samples were vortexed. Five hundred μL of isopropanol was added to each sample. The samples were vortexed for 15 seconds, set at room temperature 10 minutes, followed by centrifugation at 12,000×g for 15 minutes at 4° C. Supernatants were decanted and pellets washed with 500 μL ice cold 75% ethanol. Samples were centrifuged at 12,000×g for 15 minutes at 4° C., ethanol decanted, and pellets air dried for 10 minutes. Pellets were resuspended in 30 μL prewarmed RNASECURE (60° C.), and heated at 60° C. for 10 min. Samples were stored at −80° C. until DNAse treatment and cDNA synthesis.
DNase treatment and cDNA preparation with wt mouse raphe slice total RNA for TAQMAN analysis. DNase treatment using DNA-free kit (Ambion). Five μg of the total RNA sample was aliquotted to each well of a 96 well plate. An 1× DNase I solution was added to each sample (DNase I buffer, DNase I, H2O). Reactions were mixed and incubated at 37° C. for 30 minutes. Reactions were inactivated by addition of DNase inactivation reagent beads, mixed well at room temperature for 3 minutes and centrifuged at 2,500 RPM for 1 minutes at 4° C. (25 μL reactions were run and inactivated with 1/10 volume of inactivation reagent).
Reverse Transcription. A 10 μL of the DNase I-treated total RNA was added to 40 μL of 1× reverse transcription reaction mix (DEPC treated H2O, RT buffer, MgCl2, dNTP mix, random hexamers, RNase inhibitor, and MULTISCRIBE RT) and incubated at 25° C. for 10 minutes, 48° C. for 30 minutes, and 95° C. for 5 minutes. Reverse transcription was halted by the addition of EDTA. Samples were transferred to a storage plate and stored at −20° C. […]

[4] = tested on: TPH2 mRNA; assay: TPH2 mRNA levels in murine raphe slice preparation of ovariectomized female mice by real-time RT-PCR; conditions: prednisolone 10 mpk once daily; FIGS. 7 and 8
Excerpt: as §2, with “RNALATER” left out
Two TPH2 primer and probe sets were generated for use in detecting TPH2 by real-time RT-PCR. Murine TPH2 forward primers were mTPH2-514F and mTPH2-1270F, their corresponding sequences are 5′-[…]-3′ (SEQ ID NO:7; corresponding to nucleotides 514 to 535 of the nucleotide sequence encoding TPH2) and 5′-[…]-3′ (SEQ ID NO:8; corresponding to nucleotides 1270 to 1290 of the nucleotide sequence encoding TPH2), respectively. The murine TPH2 reverse primers were mTPH2-585R and mTPH2-1344R, their corresponding sequences are 5′-[…]-3′ (SEQ ID NO:9; corresponding to nucleotides 567 to 585 of the nucleotide sequence encoding TPH2) and 5′-[…]-3′ (SEQ ID NO:10; corresponding to nucleotides 1324 to 1344 of the nucleotide sequence encoding TPH2), respectively. The murine TPH2 probes were mTPH2-565T and mTPH2-1292T, their corresponding sequences are: 5′-[…]-3′ (SEQ ID NO:11; corresponding to nucleotides 539 to 565 of the nucleotide sequence encoding TPH2) and 5′-[…]-3′ (SEQ ID NO:12; corresponding to nucleotides 1292 to 1317 of the nucleotide sequence encoding TPH2), respectively. The probes were labeled at the 5′ end with FAM and the 3′ end with TAMRA.
as §3, with “RNALATER” left out, “ethanol.” for “ethanol. Samples were centrifuged at 12,000×g for 15 minutes at 4° C., ethanol decanted, and pellets air dried for 10 minutes. Pellets were resuspended in 30 μL prewarmed RNASECURE (60° C.), and heated at 60° C. for 10 min. Samples were stored at −80° C. until DNAse treatment and cDNA synthesis.”

plasma levels after treatment [1]: significant increase
Compound: C[C@]12C[C@H](O)[C@H]3[C@@H](CCC4=CC(=O)CC[C@@]43C)[C@@H]1CC[C@@H]2C(=O)CO [corticosterone]
level of TPH2 mRNA in raphe slice preparation ([2]; FIG. 11, p=0.01): significantly reduced
level of TPH2 mRNA in raphe slice preparation ([2]; FIG. 11, p=0.01, listed as corticosterone): significant decrease

Compound: C[C@]12C=CC(=O)C=C1CC[C@@H]1[C@@H]2[C@@H](O)C[C@@]2(C)[C@H]1CC[C@]2(O)C(=O)CO [prednisolone]
effect on TPH1 mRNA levels ([3]; 10 mpk s.c., ovariectomized mice): neither 3 mpk of dexamethasone nor 10 mpk prednisolone had any effect; also recorded: no effect
change of TPH1 mRNA levels in response to treatment ([3]; murine raphe slice preparations, dose not stated): no detectable change
effect on TPH2 mRNA expression compared to vehicle [4]: decrease; also recorded: significant reduction
